Measured values: article PMC10485906, “Development of a Dihydroquinoline–Pyrazoline GluN2C/2D-Selective Negative Allosteric Modulator of the N-Methyl-D-aspartate Receptor” (ACS Chemical Neuroscience, 2023)
Where “and” joins values, the source holds several entries; their conditions need not be identical. Identical values can stand only once. Like-named read-outs stand apart in the source and are kept apart here. Marks after values point to notes of the source that are not given here.

What was measured:
[1] = Brain homogenate tissue binding and stability (RED device); type: in vitro ADME, mouse; details: for remaining at 4 h, 5 µM / fraction unbound at 4 h, 5 µM: C57BL/6, mouse, brain homogenate (4 times diluted); for remaining at 4 h, 5 µM: pH 7.4, starting concentration 5 μM; for recovery at 4 h, 5 μM: C57BL/6, pH 7.4, mouse brain tissue binding; for Average 2i Concentration, Buffer_Mice: buffer chamber after 4 h dialysis; for Average 2i Concentration, Brain_Mice: brain homogenate chamber after 4 h dialysis; for Average 2i Concentration, Brain_St_0Hr_Mice / Average 2i Concentration, Brain_St_4Hr_Mice: brain homogenate stability sample; for Average 2i Concentration, Brain_St_0Hr_Mice: 0 h
Experimental: Carbamazepine (Apin Chemicals) served as a positive control for brain tissue binding. Test compounds and the positive control were initially dissolved in DMSO to make 1 mM stock solutions. […] A rapid equilibrium dialysis (RED) device (Thermo Scientific) containing a dialysis membrane with a molecular weight cutoff of 8000 Da was used to assess tissue binding and metabolic stability. […] The test compounds and positive control (200 μL of 5 μM solution) were added to the red chamber of the dialysis insert, while the white chamber was filled with dialysis buffer (350 μL). The RED device was then sealed with an adhesive film and incubated at 37 °C with shaking (300 rpm) for 4 h. For the initial time point (t = 0 min), 50 μL aliquots of test compounds and the positive control were added to 96-deep well plates (0.7 mL per well) and quenched with 400 μL of MeCN. Following dialysis, another 50 μL aliquot of the tested samples was removed from each well (brain homogenate and buffer) and diluted with an equal volume of the opposite matrix to nullify any matrix effects. […] The supernatant (100 μL) was subsequently transferred to 96-deep well plates for LC-MS/MS analysis. Prodrug metabolism and 2i concentrations were determined by fit-for-purpose LC-MS/MS methods on a nine-point calibration curve ranging from 0.12 to 7.5 μM.

[2] = target: GluN1/GluN2D (Rattus norvegicus, UniProt Q62645); assay: Two-electrode voltage-clamp recordings, Xenopus laevis oocytes, GluN1/GluN2D; type: cell-based; design: GluN2B (NM_012574.1), GluN2C (NM_012575.3), and GluN2D (NM_022797.2) were provided by; expressed in transfected cells; host or cells: Xenopus laevis oocytes (cRNA injection); details: for Selectivity 2A IC50 / 2D IC50: GluN2D over GluN2A; for Selectivity 2B IC50 / 2D IC50: GluN2D over GluN2B; for I3 μM/Icontrol GluN2D: tested at 3 μM; for I3 μM/Icontrol GluN2D / I / I control GluN2D: 100 μM glutamate, 30 μM glycine; for I / I control GluN2D: tested at 10 μM (footnote b)
Experimental: All target compounds were evaluated for NMDAR antagonism using two-electrode voltage-clamp recordings from Xenopus laevis oocytes coexpressing recombinant GluN1 and GluN2A-D subunits (Table 1).[32],[42],[33] All analogues were assessed as either a racemic (2b, 2e–2r) or diastereomeric (2d) mixture to simplify purification and streamline in vitro analysis. […] Moreover, as illustrated by the significant loss of NMDAR activity observed with nitrile 2e, the DQP allosteric site necessitated an H-bond donor/acceptor relationship at the carboxylate position. […] The loss of NMDAR activity observed with the trifluoro analogue 2j (Table S1) reinforced the necessity for an H-bond donor/acceptor relationship to maintain allosteric binding and established that fluorine substitution alone is ineffective. […] A single methyl substitution of the amide in compound 2q improved selectivity against GluN2A and had similar potency as 2a, whereas dual methyl substitution reduced potency (2r). We expect that this is likely due to the ability of the […] of the amide to accept hydrogen bonds while the amide can readily donate a proton.
Unfertilized Xenopus laevis oocytes were obtained from Ecocyte (Austin, TX), or ovaries were purchased from Xenopus 1 (Dexter, MI) and oocytes prepared as previously described.[42],[47] Two-electrode voltage-clamp recordings were performed on oocytes expressing recombinant rat GluN1/GluN2A, GluN1/GluN2B, GluN1/GluN2C, or GluN1/GluN2D. cDNAs for rat GluN1-1a (referred to as GluN1; NCBI Reference Sequence NM_017010.2), GluN2A (NM_012573.4), GluN2B (NM_012574.1), GluN2C (NM_012575.3), and GluN2D (NM_022797.2) were provided by Dr. S. Heinemann from the Salk Institute, Dr. S. Nakanishi from Kyoto University, and Dr. P. Seeburg from the University of Heidelberg. Oocyte isolation, cRNA synthesis, and cRNA injections were performed as previously described.[32],[33],[47] Briefly, Xenopus laevis oocytes were injected with 5–10 ng of cRNA in RNase-free water with the GluN1:GluN2 ratio ranging from 1:1 to 1:5. Oocytes were incubated at 15–19 °C in Barth’s solution consisting of (in mM) 88 NaCl, 1 KCl, 2.4 NaHCO3, 10 HEPES, 0.82 MgSO4, 0.33 Ca(NO3)2, and 0.41 CaCl2 supplemented with 100 μg/mL gentamycin, 40 μg/mL streptomycin, and 50 μg/mL penicillin. Recordings were performed 2–4 days after injection with extracellular recording solution containing (in mM) 90 NaCl, 1 KCl, 10 HEPES, 0.5 BaCl2, and 0.01 EDTA at pH 7.4 adjusted with NaOH. To prevent a gradual increase in current response over the course of the experiment, some oocytes expressing GluN1/GluN2A were injected with 20–50 nL of 2–50 mM K-BAPTA. Concentration–response curves for test compounds were generated by applying a maximally effective concentration of glutamate (100 μM) and glycine (30 μM), followed by glutamate and glycine with variable concentrations of test compounds up to 30 μM. The test compounds were prepared as 20 mM stock solutions in DMSO and diluted to the final concentration in recording solution. The DMSO content was 0.05–0.5% (v/v). […] Methods for off-target analysis are given in the Supporting Information.
Confidence intervals were determined for the log(IC50). The time course of relaxation during inhibitor application or deactivation following rapid removal of NMDA or glutamate was fitted by the equation [drawing 5] 2

[3] = pH 7.4, mouse brain tissue binding (free fraction in brain), read-out: % Unbound
[4] = pH 7.4, mouse brain tissue binding, RED, 4 h, read-out: % Bound Mean ± SD (converted)
[5] = pH 7.4, mouse brain tissue binding, RED, 4 h, read-out: % Bound R1 (converted)
[6] = pH 7.4, mouse brain tissue binding, RED, 4 h, read-out: % Bound R2 (converted)

Chain of GluN1/GluN2D (Q62645 28-1323, other chains not shown): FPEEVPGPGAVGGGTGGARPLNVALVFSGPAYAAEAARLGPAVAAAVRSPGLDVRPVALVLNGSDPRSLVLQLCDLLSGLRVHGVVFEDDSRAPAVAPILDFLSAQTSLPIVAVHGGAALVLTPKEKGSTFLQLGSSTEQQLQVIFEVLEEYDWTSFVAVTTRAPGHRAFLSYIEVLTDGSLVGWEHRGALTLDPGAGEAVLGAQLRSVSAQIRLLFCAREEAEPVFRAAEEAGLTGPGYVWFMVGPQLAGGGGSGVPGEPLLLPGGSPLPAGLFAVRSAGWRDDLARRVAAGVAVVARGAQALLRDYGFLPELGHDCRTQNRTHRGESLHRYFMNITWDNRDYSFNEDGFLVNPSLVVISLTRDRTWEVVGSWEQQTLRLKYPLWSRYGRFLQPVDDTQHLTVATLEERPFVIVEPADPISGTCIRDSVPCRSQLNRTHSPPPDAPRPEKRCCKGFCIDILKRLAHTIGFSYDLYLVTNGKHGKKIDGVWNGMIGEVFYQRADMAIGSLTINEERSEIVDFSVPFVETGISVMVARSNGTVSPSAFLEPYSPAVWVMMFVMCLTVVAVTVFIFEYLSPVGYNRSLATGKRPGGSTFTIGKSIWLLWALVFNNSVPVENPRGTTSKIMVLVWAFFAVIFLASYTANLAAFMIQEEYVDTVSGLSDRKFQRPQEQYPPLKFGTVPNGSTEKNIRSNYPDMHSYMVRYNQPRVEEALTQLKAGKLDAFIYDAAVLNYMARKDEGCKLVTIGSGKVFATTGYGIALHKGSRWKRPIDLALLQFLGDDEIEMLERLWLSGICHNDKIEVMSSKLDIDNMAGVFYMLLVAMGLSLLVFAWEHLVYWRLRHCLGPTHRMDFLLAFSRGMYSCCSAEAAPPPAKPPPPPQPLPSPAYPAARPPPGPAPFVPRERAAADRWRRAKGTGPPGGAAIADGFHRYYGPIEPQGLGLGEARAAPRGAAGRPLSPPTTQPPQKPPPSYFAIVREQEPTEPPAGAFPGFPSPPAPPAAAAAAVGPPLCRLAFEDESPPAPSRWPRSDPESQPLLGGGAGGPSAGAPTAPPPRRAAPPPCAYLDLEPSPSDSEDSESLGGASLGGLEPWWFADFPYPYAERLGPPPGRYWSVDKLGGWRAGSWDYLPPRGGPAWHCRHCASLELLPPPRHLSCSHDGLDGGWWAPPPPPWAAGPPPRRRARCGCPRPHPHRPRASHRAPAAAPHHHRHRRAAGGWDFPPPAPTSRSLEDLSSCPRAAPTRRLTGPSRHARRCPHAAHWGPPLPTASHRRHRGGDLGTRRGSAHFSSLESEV

## CC(C)OC(=O)CC(F)(F)C(=O)N1N=C(c2c(-c3ccc(Cl)cc3)c3ccccc3[nH]c2=O)CC1c1ccc(Cl)cc1 (stereo not drawn) [2m]
[1]; 4 h
  remaining at 4 h, 5 µM: 56%
[1]; RED, 4 h
  recovery at 4 h, 5 μM: 51%
[1]
  Average 2i Concentration, Buffer_Mice: BLQ

## NC(=O)CC(F)(F)C(=O)N1N=C(c2c(-c3ccc(Cl)cc3)c3ccccc3[nH]c2=O)CC1c1ccc(Cl)cc1 (stereo not drawn) [2k]
[1]; 4 h
  remaining at 4 h, 5 µM: 44%
[1]; RED, 4 h
  recovery at 4 h, 5 μM: 41%
[1]; after 4 h
  metabolized in brain homogenate (% of prodrug): 56%
[2]
  Selectivity 2A IC50 / 2D IC50: 24 fold
  Selectivity 2B IC50 / 2D IC50: 13 fold
[2]; mean ± SEM
  I3 μM/Icontrol GluN2D: 16 ± 2.3 ^b (3,17) %

## CNC(=O)CC(F)(F)C(=O)N1N=C(c2c(-c3ccc(Cl)cc3)c3ccccc3[nH]c2=O)CC1c1ccc(Cl)cc1 (stereo not drawn) [2q]
[1]; 4 h
  remaining at 4 h, 5 µM: 33%
  Average 2i Concentration, Brain_St_4Hr_Mice: BLQ
[1]; RED, 4 h
  recovery at 4 h, 5 μM: 30%
[1]
  Average 2i Concentration, Brain_Mice: BLQ
  Average 2i Concentration, Brain_St_0Hr_Mice: BLQ
  Average 2i Concentration, Buffer_Mice: BLQ
[2]
  Selectivity 2A IC50 / 2D IC50: 90 fold
  Selectivity 2B IC50 / 2D IC50: 49 fold
[2]; mean ± SEM
  I / I control GluN2D: 12 ± 1.5 ^b (3, 18) %

## O=C(CC(F)(F)C(=O)N1N=C(c2c(-c3ccc(Cl)cc3)c3ccccc3[nH]c2=O)CC1c1ccc(Cl)cc1)OCc1ccccc1 (stereo not drawn) [2p]
[1]; 4 h
  remaining at 4 h, 5 µM: 31%
[1]; RED, 4 h
  recovery at 4 h, 5 μM: 33%
[1]
  Average 2i Concentration, Buffer_Mice: BLQ

## O=C(O)CC(F)(F)C(=O)N1N=C(c2c(-c3ccc(Cl)cc3)c3ccccc3[nH]c2=O)C[C@H]1c1ccc(Cl)cc1 [(S)-(−)-2i]
[2]; 1 µM compound, 100 µM glutamate, 30 µM glycine, mean ± SEM
  % control GluN1/GluN2D: 4.3 ± 0.73%
[2]
  Selectivity 2A IC50 / 2D IC50: 134 fold
  Selectivity 2B IC50 / 2D IC50: 457 fold
[2]; abstract
  fold more potent than (S)-2a: 5 fold
[2]; mean ± SEM
  I3 μM/Icontrol GluN2D: 3.8 ± 0.60 (4, 25) %

## O=C(CC(F)(F)C(=O)N1N=C(c2c(-c3ccc(Cl)cc3)c3ccccc3[nH]c2=O)CC1c1ccc(Cl)cc1)OCC1CC1 (stereo not drawn) [2n]
[1]; 4 h
  remaining at 4 h, 5 µM: 25%
[1]; RED, 4 h
  recovery at 4 h, 5 μM: 29%
[1]
  Average 2i Concentration, Brain_St_0Hr_Mice: BLQ
  Average 2i Concentration, Buffer_Mice: BLQ

## O=C(O)CCC(=O)N1N=C(c2c(-c3ccc(Cl)cc3)c3ccccc3[nH]c2=O)CC1c1ccc(Cl)cc1 (stereo not drawn) [2a]
[1]; [3]
  fraction unbound at 4 h, 5 µM: 0.002
[1]; [4]
  fraction unbound at 4 h, 5 µM: 0.002
[1]; [5]
  fraction unbound at 4 h, 5 µM: 0.001
[1]; [6]
  fraction unbound at 4 h, 5 µM: 0.002
[1]; pH 7.4, mouse brain tissue binding, read-out: fu
  fraction unbound at 4 h, 5 µM: 0.002
[1]; 4 h
  remaining at 4 h, 5 µM: 94%
[1]; RED, 4 h
  recovery at 4 h, 5 μM: 100%

## O=C(O)CC(F)(F)C(=O)N1N=C(c2c(-c3ccc(Cl)cc3)c3ccccc3[nH]c2=O)CC1c1ccc(Cl)cc1 (stereo not drawn) [2i]
[1]; [3]
  fraction unbound at 4 h, 5 µM: < 0.001
[1]; [4]
  fraction unbound at 4 h, 5 µM: < 0.001
[1]; [5]
  fraction unbound at 4 h, 5 µM: < 0.001
[1]; [6]
  fraction unbound at 4 h, 5 µM: < 0.001
[1]; 4 h
  remaining at 4 h, 5 µM: 105%
[1]; RED, 4 h
  recovery at 4 h, 5 μM: 57%
[2]
  Selectivity 2A IC50 / 2D IC50: 43 fold
  Selectivity 2B IC50 / 2D IC50: 123 fold
[2]; mean ± SEM
  I3 μM/Icontrol GluN2D: 12 ± 1.8% and 12 ± 1.8 ^b (2,16) %
[2]; mean ± SEM, listed as racemic 2i
  I3 μM/Icontrol GluN2D: 12 ± 1.8 (2, 16) %

## CCOC(=O)CC(F)(F)C(=O)N1N=C(c2c(-c3ccc(Cl)cc3)c3ccccc3[nH]c2=O)CC1c1ccc(Cl)cc1 (stereo not drawn) [2l]
[1]; 4 h
  remaining at 4 h, 5 µM: 43%
[1]; RED, 4 h
  recovery at 4 h, 5 μM: 41%
[1]
  Average 2i Concentration, Buffer_Mice: BLQ

## CN(C)C(=O)CC(F)(F)C(=O)N1N=C(c2c(-c3ccc(Cl)cc3)c3ccccc3[nH]c2=O)CC1c1ccc(Cl)cc1 (stereo not drawn) [2r]
[1]; [3]
  fraction unbound at 4 h, 5 µM: < 0.001
[1]; [4]
  fraction unbound at 4 h, 5 µM: < 0.001
[1]; [5]
  fraction unbound at 4 h, 5 µM: < 0.001
[1]; [6]
  fraction unbound at 4 h, 5 µM: < 0.001
[1]; 4 h
  remaining at 4 h, 5 µM: 93%
  Average 2i Concentration, Brain_St_4Hr_Mice: BLQ
[1]; RED, 4 h
  recovery at 4 h, 5 μM: 90%
[1]
  Average 2i Concentration, Brain_Mice: BLQ
  Average 2i Concentration, Brain_St_0Hr_Mice: BLQ
  Average 2i Concentration, Buffer_Mice: BLQ
[2]; mean ± SEM
  I / I control GluN2D: 19 ± 1.6 ^b (3,14) %

## CC(C)(C)COC(=O)CC(F)(F)C(=O)N1N=C(c2c(-c3ccc(Cl)cc3)c3ccccc3[nH]c2=O)CC1c1ccc(Cl)cc1 (stereo not drawn) [2o]
[1]; 4 h
  remaining at 4 h, 5 µM: 53%
[1]; RED, 4 h
  recovery at 4 h, 5 μM: 44%
[1]
  Average 2i Concentration, Brain_St_0Hr_Mice: BLQ
  Average 2i Concentration, Buffer_Mice: BLQ
[2]; mean ± SEM
  I / I control GluN2D: 82 ± 0.7%
